From paper PMC9532703, “A novel small molecule RK-019 inhibits FGFR2-amplification gastric cancer cell proliferation and induces apoptosis in vitro and in vivo” (Frontiers in Pharmacology, 2022)

What was measured:
Test in all cases: Kinase selectivity panel
Type in all cases: biochemical
ARK5(h) = biological target: T1, ARK5(h) (Homo sapiens, UniProt O60285); details: read-out: Inhibition(%) @ 1 µM RK-019
T1 construct: purchased Eurofins Discovery Services (KinaseProfiler)
Protocol: (§1) Median-inhibitory concentration (IC50) and inhibition ratio of kinases by RK-019 was assessed by Eurofins Discovery Services (Dundee, United Kingdom) using the ATP-site competition binding assay in vitro. Firstly, gradient concentration of RK-019 against FGFRs, including FGFR1, FGFR2, FGFR3, and FGFR4, were tested. IC50 value was calculate by the GraphPad Prism software (v8.4.3, GraphPad Software, California, United States). Then, to measure the selectivity prolife of RK-019, a panel of 422 recombinant human kinases was screened at a concentration of 1 µM RK-019. Kinase MAP was drawn by webtools from Cell Signaling Technology, Inc. (www.cellsignal.com).

ASK1(h) = biological target: T2, ASK1(h) (Homo sapiens, UniProt Q99683); details: read-out: Inhibition(%) @ 1 µM RK-019
T2 construct: purchased Eurofins Discovery Services (KinaseProfiler)
Protocol: as §1

CDK3/cyclinE(h) = biological target: T3, CDK3/cyclinE(h) (Homo sapiens, UniProt Q00526); details: read-out: Inhibition(%) @ 1 µM RK-019
T3 construct: purchased Eurofins Discovery Services (KinaseProfiler)
Protocol: as §1

CaMKK1(h) = biological target: T4, CaMKK1(h) (Homo sapiens, UniProt Q8N5S9); details: read-out: Inhibition(%) @ 1 µM RK-019
T4 construct: purchased Eurofins Discovery Services (KinaseProfiler)
Protocol: as §1

DYRK1A(h) = biological target: T5, DYRK1A(h) (Homo sapiens, UniProt Q13627); details: read-out: Inhibition(%) @ 1 µM RK-019
T5 construct: purchased Eurofins Discovery Services (KinaseProfiler)
Protocol: as §1

ErbB4(h) = biological target: T6, ErbB4(h) (Homo sapiens, UniProt Q15303); details: read-out: Inhibition(%) @ 1 µM RK-019
T6 construct: purchased Eurofins Discovery Services (KinaseProfiler)
Protocol: as §1

FGFR4(h) = biological target: T7, FGFR4(h) (Homo sapiens, UniProt P22455)
T7 construct: purchased Eurofins Discovery Services (KinaseProfiler)
Protocol: as §1

GRK2(h) = biological target: T8, GRK2(h) (Homo sapiens, UniProt P25098); details: read-out: Inhibition(%) @ 1 µM RK-019
T8 construct: purchased Eurofins Discovery Services (KinaseProfiler)
Protocol: as §1

Haspin(h) = biological target: T9, Haspin(h) (Homo sapiens, UniProt Q8TF76); details: read-out: Inhibition(%) @ 1 µM RK-019
T9 construct: purchased Eurofins Discovery Services (KinaseProfiler)
Protocol: as §1

IGF-1R(h), activated = biological target: T10, IGF-1R(h), activated (Homo sapiens, UniProt P08069); details: read-out: Inhibition(%) @ 1 µM RK-019
T10 construct: purchased Eurofins Discovery Services (KinaseProfiler)
Protocol: as §1

MAP4K4(h) = biological target: T11, MAP4K4(h) (Homo sapiens, UniProt O95819); details: read-out: Inhibition(%) @ 1 µM RK-019
T11 construct: purchased Eurofins Discovery Services (KinaseProfiler)
Protocol: as §1

MAPK2(m) = biological target: T12, MAPK2(m) (Mus musculus, UniProt P63085); details: read-out: Inhibition(%) @ 1 µM RK-019
T12 construct: purchased Eurofins Discovery Services (KinaseProfiler)
Protocol: as §1

MKK4(m) = biological target: T13, MKK4(m) (Mus musculus, UniProt P47809); details: read-out: Inhibition(%) @ 1 µM RK-019
T13 construct: purchased Eurofins Discovery Services (KinaseProfiler)
Protocol: as §1

NDR2(h) = biological target: T14, NDR2(h) (Homo sapiens, UniProt Q9Y2H1); details: read-out: Inhibition(%) @ 1 µM RK-019
T14 construct: purchased Eurofins Discovery Services (KinaseProfiler)
Protocol: as §1

NEK6(h) = biological target: T15, NEK6(h) (Homo sapiens, UniProt Q9HC98); details: read-out: Inhibition(%) @ 1 µM RK-019
T15 construct: purchased Eurofins Discovery Services (KinaseProfiler)
Protocol: as §1

NEK9(h) = biological target: T16, NEK9(h) (Homo sapiens, UniProt Q8TD19); details: read-out: Inhibition(%) @ 1 µM RK-019
T16 construct: purchased Eurofins Discovery Services (KinaseProfiler)
Protocol: as §1

PAK2(h) = biological target: T17, PAK2(h) (Homo sapiens, UniProt Q13177); details: read-out: Inhibition(%) @ 1 µM RK-019
T17 construct: purchased Eurofins Discovery Services (KinaseProfiler)
Protocol: as §1

PDGFRα(h) = biological target: T18, PDGFRα(h) (Homo sapiens, UniProt P16234); details: read-out: Inhibition(%) @ 1 µM RK-019
T18 construct: purchased Eurofins Discovery Services (KinaseProfiler)
Protocol: as §1

[1] = biological target: T19, PI3 Kinase (p110a/p85a)(h) (Homo sapiens, UniProt P42336); details: read-out: Inhibition(%) @ 1 µM RK-019
T19 construct: purchased Eurofins Discovery Services (KinaseProfiler)
Protocol: as §1

[2] = biological target: T20, PI3 Kinase (p110b/p85a)(m) (Mus musculus, UniProt Q8BTI9); details: read-out: Inhibition(%) @ 1 µM RK-019
T20 construct: purchased Eurofins Discovery Services (KinaseProfiler)
Protocol: as §1

PKG1α(h) = biological target: T21, PKG1α(h) (Homo sapiens, UniProt Q13976); details: read-out: Inhibition(%) @ 1 µM RK-019
T21 construct: purchased Eurofins Discovery Services (KinaseProfiler)
Protocol: as §1

PRK2(h) = biological target: T22, PRK2(h) (Homo sapiens, UniProt Q16513); details: read-out: Inhibition(%) @ 1 µM RK-019
T22 construct: purchased Eurofins Discovery Services (KinaseProfiler)
Protocol: as §1

RIPK2(h) = biological target: T23, RIPK2(h) (Homo sapiens, UniProt O43353); details: read-out: Inhibition(%) @ 1 µM RK-019
T23 construct: purchased Eurofins Discovery Services (KinaseProfiler)
Protocol: as §1

ROCK-II(h) = biological target: T24, ROCK-II(h) (Homo sapiens, UniProt O75116); details: read-out: Inhibition(%) @ 1 µM RK-019
T24 construct: purchased Eurofins Discovery Services (KinaseProfiler)
Protocol: as §1

Rse(h) = biological target: T25, Rse(h) (Homo sapiens, UniProt Q06418); details: read-out: Inhibition(%) @ 1 µM RK-019
T25 construct: purchased Eurofins Discovery Services (KinaseProfiler)
Protocol: as §1

Rsk1(h) = biological target: T26, Rsk1(h) (Homo sapiens, UniProt Q15418); details: read-out: Inhibition(%) @ 1 µM RK-019
T26 construct: purchased Eurofins Discovery Services (KinaseProfiler)
Protocol: as §1

Rsk4(h) = biological target: T27, Rsk4(h) (Homo sapiens, UniProt Q9UK32); details: read-out: Inhibition(%) @ 1 µM RK-019
T27 construct: purchased Eurofins Discovery Services (KinaseProfiler)
Protocol: as §1

SAPK3(h) = biological target: T28, SAPK3(h) (Homo sapiens, UniProt P53778); details: read-out: Inhibition(%) @ 1 µM RK-019
T28 construct: purchased Eurofins Discovery Services (KinaseProfiler)
Protocol: as §1

SGK3(h) = biological target: T29, SGK3(h) (Homo sapiens, UniProt Q96BR1); details: read-out: Inhibition(%) @ 1 µM RK-019
T29 construct: purchased Eurofins Discovery Services (KinaseProfiler)
Protocol: as §1

TGFBR1(h) = biological target: T30, TGFBR1(h) (Homo sapiens, UniProt P36897); details: read-out: Inhibition(%) @ 1 µM RK-019
T30 construct: purchased Eurofins Discovery Services (KinaseProfiler)
Protocol: as §1

TRB2(h) = biological target: T31, TRB2(h) (Homo sapiens, UniProt Q92519); details: read-out: Inhibition(%) @ 1 µM RK-019
T31 construct: purchased Eurofins Discovery Services (KinaseProfiler)
Protocol: as §1

TSSK1(h) = biological target: T32, TSSK1(h) (Homo sapiens, UniProt Q9BXA7); details: read-out: Inhibition(%) @ 1 µM RK-019
T32 construct: purchased Eurofins Discovery Services (KinaseProfiler)
Protocol: as §1

Tie2(R849W)(h) = biological target: T33, Tie2(R849W)(h) (Homo sapiens, UniProt Q02763, R849W); details: read-out: Inhibition(%) @ 1 µM RK-019
T33 construct: purchased Eurofins Discovery Services (KinaseProfiler)
Protocol: as §1

ULK1(h) = biological target: T34, ULK1(h) (Homo sapiens, UniProt O75385); details: read-out: Inhibition(%) @ 1 µM RK-019
T34 construct: purchased Eurofins Discovery Services (KinaseProfiler)
Protocol: as §1

Wee1B(h) = biological target: T35, Wee1B(h) (Homo sapiens, UniProt P0C1S8); details: read-out: Inhibition(%) @ 1 µM RK-019
T35 construct: purchased Eurofins Discovery Services (KinaseProfiler)
Protocol: as §1

cKit(V654A)(h) = biological target: T36, cKit(V654A)(h) (Homo sapiens, UniProt P10721, V654A); details: read-out: Inhibition(%) @ 1 µM RK-019
T36 construct: purchased Eurofins Discovery Services (KinaseProfiler)
Protocol: as §1

T7 sequence (P22455 22-802): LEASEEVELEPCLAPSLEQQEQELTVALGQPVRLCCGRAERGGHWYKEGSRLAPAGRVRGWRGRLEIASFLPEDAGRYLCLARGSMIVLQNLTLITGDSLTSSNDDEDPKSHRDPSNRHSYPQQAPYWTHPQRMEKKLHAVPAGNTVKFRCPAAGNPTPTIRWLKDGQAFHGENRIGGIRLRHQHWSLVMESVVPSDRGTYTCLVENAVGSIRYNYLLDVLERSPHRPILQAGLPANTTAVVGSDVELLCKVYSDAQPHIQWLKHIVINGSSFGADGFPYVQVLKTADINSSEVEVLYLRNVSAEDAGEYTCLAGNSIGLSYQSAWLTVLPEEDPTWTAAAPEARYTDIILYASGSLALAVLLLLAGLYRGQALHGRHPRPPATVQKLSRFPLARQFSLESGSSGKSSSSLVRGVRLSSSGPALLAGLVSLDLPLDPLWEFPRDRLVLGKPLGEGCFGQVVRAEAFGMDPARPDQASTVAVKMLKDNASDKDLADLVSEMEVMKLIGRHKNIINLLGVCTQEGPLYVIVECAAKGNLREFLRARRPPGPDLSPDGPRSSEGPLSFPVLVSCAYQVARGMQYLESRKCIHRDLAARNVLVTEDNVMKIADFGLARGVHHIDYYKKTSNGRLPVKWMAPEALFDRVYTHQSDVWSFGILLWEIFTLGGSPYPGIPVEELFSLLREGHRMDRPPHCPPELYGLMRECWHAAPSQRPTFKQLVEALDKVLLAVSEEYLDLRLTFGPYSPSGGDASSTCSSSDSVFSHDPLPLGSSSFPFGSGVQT
T1 sequence (O60285 whole entry): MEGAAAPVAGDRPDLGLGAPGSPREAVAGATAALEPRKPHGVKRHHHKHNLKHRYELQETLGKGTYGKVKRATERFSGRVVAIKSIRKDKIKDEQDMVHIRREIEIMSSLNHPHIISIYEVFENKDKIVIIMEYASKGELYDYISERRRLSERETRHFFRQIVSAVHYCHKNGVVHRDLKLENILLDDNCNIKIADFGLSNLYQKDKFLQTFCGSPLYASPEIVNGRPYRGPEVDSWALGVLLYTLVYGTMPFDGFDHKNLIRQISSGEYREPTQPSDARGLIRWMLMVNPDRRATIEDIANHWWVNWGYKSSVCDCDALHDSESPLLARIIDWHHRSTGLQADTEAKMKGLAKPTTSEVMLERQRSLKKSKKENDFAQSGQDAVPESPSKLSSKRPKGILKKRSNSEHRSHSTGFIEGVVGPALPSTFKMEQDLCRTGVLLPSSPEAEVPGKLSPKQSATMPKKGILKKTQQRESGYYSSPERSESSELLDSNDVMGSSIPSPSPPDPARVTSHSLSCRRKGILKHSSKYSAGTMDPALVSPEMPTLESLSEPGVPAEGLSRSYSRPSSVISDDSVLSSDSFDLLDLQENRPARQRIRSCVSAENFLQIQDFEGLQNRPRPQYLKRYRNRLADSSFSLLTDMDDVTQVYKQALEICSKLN
T27 sequence (Q9UK32 whole entry): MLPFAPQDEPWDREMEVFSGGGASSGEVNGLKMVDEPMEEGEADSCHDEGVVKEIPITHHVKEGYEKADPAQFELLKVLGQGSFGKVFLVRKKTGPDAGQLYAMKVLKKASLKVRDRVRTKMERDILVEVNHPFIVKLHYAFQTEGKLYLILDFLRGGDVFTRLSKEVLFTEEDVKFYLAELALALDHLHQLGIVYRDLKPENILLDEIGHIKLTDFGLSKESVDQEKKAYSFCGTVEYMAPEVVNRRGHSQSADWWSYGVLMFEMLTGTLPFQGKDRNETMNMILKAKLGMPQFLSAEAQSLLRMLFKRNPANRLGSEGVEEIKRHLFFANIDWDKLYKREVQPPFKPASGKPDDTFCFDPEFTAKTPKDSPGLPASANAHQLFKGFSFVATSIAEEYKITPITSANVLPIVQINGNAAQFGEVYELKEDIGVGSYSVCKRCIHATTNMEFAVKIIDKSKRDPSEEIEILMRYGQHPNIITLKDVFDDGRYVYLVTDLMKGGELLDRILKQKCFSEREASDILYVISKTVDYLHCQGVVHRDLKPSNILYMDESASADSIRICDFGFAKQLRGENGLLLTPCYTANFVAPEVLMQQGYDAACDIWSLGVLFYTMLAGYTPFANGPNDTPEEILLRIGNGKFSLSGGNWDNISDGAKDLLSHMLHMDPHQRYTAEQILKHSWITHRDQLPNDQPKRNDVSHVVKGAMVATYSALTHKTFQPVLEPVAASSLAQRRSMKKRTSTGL
T15 sequence (Q9HC98 whole entry): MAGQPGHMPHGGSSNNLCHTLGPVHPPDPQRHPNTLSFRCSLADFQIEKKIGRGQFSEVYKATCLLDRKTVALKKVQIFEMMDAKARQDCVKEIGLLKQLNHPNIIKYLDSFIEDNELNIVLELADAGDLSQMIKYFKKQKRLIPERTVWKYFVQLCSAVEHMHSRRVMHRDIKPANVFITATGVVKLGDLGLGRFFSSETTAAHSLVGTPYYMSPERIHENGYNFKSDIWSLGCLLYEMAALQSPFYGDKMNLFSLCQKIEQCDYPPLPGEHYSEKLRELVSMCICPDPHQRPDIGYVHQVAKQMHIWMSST
T30 sequence (P36897 34-503): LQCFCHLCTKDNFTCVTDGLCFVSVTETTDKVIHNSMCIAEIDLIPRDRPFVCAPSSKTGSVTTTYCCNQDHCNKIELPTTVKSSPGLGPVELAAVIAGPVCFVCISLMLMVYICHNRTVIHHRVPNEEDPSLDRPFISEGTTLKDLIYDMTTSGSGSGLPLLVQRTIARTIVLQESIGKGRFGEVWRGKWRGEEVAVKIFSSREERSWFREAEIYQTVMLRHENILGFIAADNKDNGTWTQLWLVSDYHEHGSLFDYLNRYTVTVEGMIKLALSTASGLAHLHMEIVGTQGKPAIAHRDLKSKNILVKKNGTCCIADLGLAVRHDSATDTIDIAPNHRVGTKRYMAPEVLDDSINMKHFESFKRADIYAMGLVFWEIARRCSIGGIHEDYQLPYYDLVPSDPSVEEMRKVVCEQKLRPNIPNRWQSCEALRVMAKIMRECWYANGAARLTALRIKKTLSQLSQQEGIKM
T33 sequence (Q02763 23-1124 R849W): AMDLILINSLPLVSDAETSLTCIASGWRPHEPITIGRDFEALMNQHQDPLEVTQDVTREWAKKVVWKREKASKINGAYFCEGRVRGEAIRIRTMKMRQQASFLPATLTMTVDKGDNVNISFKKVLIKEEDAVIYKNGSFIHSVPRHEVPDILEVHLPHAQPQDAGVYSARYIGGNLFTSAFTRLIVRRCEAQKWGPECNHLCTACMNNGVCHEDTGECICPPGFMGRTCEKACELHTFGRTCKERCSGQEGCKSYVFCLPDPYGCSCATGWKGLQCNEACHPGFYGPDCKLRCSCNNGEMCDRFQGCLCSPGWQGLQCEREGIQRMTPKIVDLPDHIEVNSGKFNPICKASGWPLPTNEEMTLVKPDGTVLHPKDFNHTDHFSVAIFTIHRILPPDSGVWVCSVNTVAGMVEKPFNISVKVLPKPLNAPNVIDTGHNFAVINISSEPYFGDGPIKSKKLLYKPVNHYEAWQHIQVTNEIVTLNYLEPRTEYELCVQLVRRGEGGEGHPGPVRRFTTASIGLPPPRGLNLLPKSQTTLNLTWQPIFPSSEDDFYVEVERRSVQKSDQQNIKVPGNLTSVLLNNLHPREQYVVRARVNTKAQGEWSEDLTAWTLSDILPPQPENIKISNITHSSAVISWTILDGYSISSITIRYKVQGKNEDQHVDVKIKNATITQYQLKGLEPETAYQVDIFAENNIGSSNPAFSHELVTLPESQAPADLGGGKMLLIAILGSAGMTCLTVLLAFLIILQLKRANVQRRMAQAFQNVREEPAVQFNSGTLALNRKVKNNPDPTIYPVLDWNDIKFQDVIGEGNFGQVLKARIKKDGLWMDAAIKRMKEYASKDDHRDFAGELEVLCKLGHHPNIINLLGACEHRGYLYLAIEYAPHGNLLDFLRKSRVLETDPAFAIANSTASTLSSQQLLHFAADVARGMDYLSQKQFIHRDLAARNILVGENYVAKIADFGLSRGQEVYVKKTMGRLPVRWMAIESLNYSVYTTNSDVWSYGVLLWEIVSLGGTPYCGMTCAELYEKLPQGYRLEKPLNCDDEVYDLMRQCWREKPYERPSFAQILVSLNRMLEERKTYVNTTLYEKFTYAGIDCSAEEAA
T4 sequence (Q8N5S9 whole entry): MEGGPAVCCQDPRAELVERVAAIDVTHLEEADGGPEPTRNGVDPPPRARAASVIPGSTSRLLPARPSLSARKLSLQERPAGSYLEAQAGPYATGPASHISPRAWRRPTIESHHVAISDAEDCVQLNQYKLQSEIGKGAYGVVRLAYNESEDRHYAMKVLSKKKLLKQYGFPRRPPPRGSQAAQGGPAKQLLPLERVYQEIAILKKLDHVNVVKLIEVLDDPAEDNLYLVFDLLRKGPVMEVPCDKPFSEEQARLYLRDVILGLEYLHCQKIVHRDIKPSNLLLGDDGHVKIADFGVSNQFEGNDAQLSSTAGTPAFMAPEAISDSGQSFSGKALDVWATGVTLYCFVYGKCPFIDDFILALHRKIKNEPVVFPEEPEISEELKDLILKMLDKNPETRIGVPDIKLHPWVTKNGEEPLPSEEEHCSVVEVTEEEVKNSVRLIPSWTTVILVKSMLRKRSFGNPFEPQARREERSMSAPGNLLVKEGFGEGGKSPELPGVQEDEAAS
T28 sequence (P53778 whole entry): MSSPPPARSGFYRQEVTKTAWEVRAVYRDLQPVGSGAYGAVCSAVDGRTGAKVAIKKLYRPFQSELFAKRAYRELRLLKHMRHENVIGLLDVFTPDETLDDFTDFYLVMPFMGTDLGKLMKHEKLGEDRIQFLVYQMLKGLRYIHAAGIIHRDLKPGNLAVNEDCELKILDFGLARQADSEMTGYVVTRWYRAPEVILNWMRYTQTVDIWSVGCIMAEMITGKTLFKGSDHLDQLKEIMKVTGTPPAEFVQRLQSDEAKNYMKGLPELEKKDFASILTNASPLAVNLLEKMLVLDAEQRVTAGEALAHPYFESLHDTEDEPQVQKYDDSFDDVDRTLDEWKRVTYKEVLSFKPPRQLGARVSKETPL

Q: `COc1cc(OC)cc(N(CCN[C@H](C)CO)c2ccc3ncc(-c4cnn(C)c4)c(=O)n3c2)c1` [RK-019, (R)-7-((3,5-dimethoxyphenyl) (2-((1-hydroxypropan-2-yl)amino)ethyl)amino)-3-(1-methyl-1H-pyrazol-4-yl)-4H-pyrido [1,2-a]pyrimidin-4-one] was tested. Which activity at 1 µM (ARK5(h)) did it give?
A: 146%

Q: And the activity at 1 µM (ASK1(h))?
A: 118%

Q: And the activity at 1 µM (CDK3/cyclinE(h))?
A: 90%

Q: What about the activity at 1 µM (CaMKK1(h)) of the same compound?
A: 105%

Q: What about the activity at 1 µM (DYRK1A(h)) of the same compound?
A: 101%

Q: And the activity at 1 µM (ErbB4(h))?
A: 105%

Q: What about the activity at 1 µM (FGFR4(h); FGFR4(h), read-out: Inhibition(%) @ 1 µM RK-019) of the same compound?
A: 5%

Q: What about the inhibition at 1 µM (FGFR4(h); FGFR4, 1 µM, read-out: inhibition (hit in panel)) of the same compound?
A: > 90%

Q: What about the activity at 1 µM (GRK2(h)) of the same compound?
A: 103%

Q: What about the activity at 1 µM (Haspin(h)) of the same compound?
A: 105%

Q: And the activity at 1 µM (IGF-1R(h), activated)?
A: 101%

Q: What about the activity at 1 µM (MAP4K4(h)) of the same compound?
A: 82%

Q: And the activity at 1 µM (MAPK2(m))?
A: 109%

Q: And the activity at 1 µM (MKK4(m))?
A: 107%

Q: And the activity at 1 µM (NDR2(h))?
A: 108%

Q: And the activity at 1 µM (NEK6(h))?
A: 97%

Q: And the activity at 1 µM (NEK9(h))?
A: 91%

Q: And the activity at 1 µM (PAK2(h))?
A: 98%

Q: And the activity at 1 µM (PDGFRα(h))?
A: 50%

Q: What about the activity at 1 µM [1] of the same compound?
A: 101%

Q: And the activity at 1 µM [2]?
A: 98%

Q: What about the activity at 1 µM (PKG1α(h)) of the same compound?
A: 110%

Q: What about the activity at 1 µM (PRK2(h)) of the same compound?
A: 106%

Q: What about the activity at 1 µM (RIPK2(h)) of the same compound?
A: 46%

Q: And the activity at 1 µM (ROCK-II(h))?
A: 105%

Q: And the activity at 1 µM (Rse(h))?
A: 104%

Q: And the activity at 1 µM (Rsk1(h))?
A: 120%

Q: And the activity at 1 µM (Rsk4(h))?
A: 146%

Q: And the activity at 1 µM (SAPK3(h))?
A: 99%

Q: And the activity at 1 µM (SGK3(h))?
A: 97%

Q: What about the activity at 1 µM (TGFBR1(h)) of the same compound?
A: 83%

Q: What about the activity at 1 µM (TRB2(h)) of the same compound?
A: 136%

Q: And the activity at 1 µM (TSSK1(h))?
A: 109%

Q: What about the activity at 1 µM (Tie2(R849W)(h)) of the same compound?
A: 82%

Q: What about the activity at 1 µM (ULK1(h)) of the same compound?
A: 105%

Q: What about the activity at 1 µM (Wee1B(h)) of the same compound?
A: 107%

Q: And the activity at 1 µM (cKit(V654A)(h))?
A: 104%
